Test system: SW 982 tumor spheroid viability
Assay: Anticancer human tumor SW 982 cell line growth inhibition;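 also: spheroids exposed to compound for 7 days before readout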
Conditions: spheroids with HUVEC and MSC; for IC50: curve of first compound; for viability, T/C: stronger effect = lower value
Outline: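 Complex tumor spheroids combined malignant cells with endothelial cells and mesenchymal stem cells. DNA-damaging drugs and DNA repair inhibitors were tested alone and in combination, at half-log dilutions down from clinical Cmax (top 10 microM if Cmax unknown), 0.25% DMSO final.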

[1] = second compound 1 µM, first compound 0.00949 µM
[2] = second compound 1 µM, first compound 0.03 µM
[3] = second compound 1 µM, first compound 0.0949 µM
[4] = second compound 1 µM, first compound 0.3 µM
[5] = second compound 1 µM, first compound 0.949 µM
[6] = second compound 1 µM, first compound 3 µM
[7] = second compound 3.16 µM, first compound 0.00949 µM
[8] = second compound 3.16 µM, first compound 0.03 µM
[9] = second compound 3.16 µM, first compound 0.0949 µM
[10] = second compound 3.16 µM, first compound 0.3 µM
[11] = second compound 3.16 µM, first compound 0.949 µM
[12] = second compound 3.16 µM, first compound 3 µM
[13] = second compound 10 µM, first compound 0.00949 µM
[14] = second compound 10 µM, first compound 0.03 µM
[15] = second compound 10 µM, first compound 0.0949 µM
[16] = second compound 10 µM, first compound 0.3 µM
[17] = second compound 10 µM, first compound 0.949 µM
[18] = second compound 10 µM, first compound 3 µM
[19] = second compound 31.6 µM, first compound 0.00949 µM
[20] = second compound 31.6 µM, first compound 0.03 µM
[21] = second compound 31.6 µM, first compound 0.0949 µM
[22] = second compound 31.6 µM, first compound 0.3 µM
[23] = second compound 31.6 µM, first compound 0.949 µM
[24] = second compound 31.6 µM, first compound 3 µM
[25] = second compound 100 µM, first compound 0.00949 µM
[26] = second compound 100 µM, first compound 0.03 µM
[27] = second compound 100 µM, first compound 0.0949 µM
[28] = second compound 100 µM, first compound 0.3 µM
[29] = second compound 100 µM, first compound 0.949 µM
[30] = second compound 100 µM, first compound 3 µM

With CNCc1ccc(-c2cc(-c3nc(-c4ccc(S(=O)(=O)C(C)C)cc4)cnc3N)on2)cc1 + Cn1nnc2c(C(N)=O)ncn2c1=O the IC50 (second compound 1 µM) was 0.219 µM, the IC50 (second compound 3.16 µM) was 0.228 µM and the IC50 (second compound 10 µM) was 0.16 µM. It also gave an IC50 (second compound 31.6 µM) of 0.109 µM, an IC50 (second compound 100 µM) of 0.0534 µM and a viability, T/C [1] of 95.6%. The viability, T/C [2] was 89.3%, the viability, T/C [3] was 75.1% and the viability, T/C [4] was 38%. It also gave a viability, T/C [5] of 28.6%, a viability, T/C [6] of 14.7% and a viability, T/C [7] of 92.9%. For the same compound, the viability, T/C [8] was 87.2%, the viability, T/C [9] was 68.8% and the viability, T/C [10] was 39.5%. It also gave a viability, T/C [11] of 29.8%, a viability, T/C [12] of 9.23% and a viability, T/C [13] of 72.7%. The viability, T/C [14] was 71.9%, the viability, T/C [15] was 60% and the viability, T/C [16] was 35.3%. The viability, T/C [17] was 26.7%, the viability, T/C [18] was 8.84% and the viability, T/C [19] was 69%. The viability, T/C [20] was 67.7%, the viability, T/C [21] was 51.6% and the viability, T/C [22] was 31.7%. For the same compound, the viability, T/C [23] was 23.1%, the viability, T/C [24] was 8.96% and the viability, T/C [25] was 63.5%. The viability, T/C [26] was 58.8%, the viability, T/C [27] was 43.5% and the viability, T/C [28] was 28.1%. For the same compound, the viability, T/C [29] was 22.7% and the viability, T/C [30] was 5.36%.
Cc1sc2c(c1C)C(c1ccc(Cl)cc1)=NC(CC(=O)Nc1ccc(O)cc1)c1nnc(C)n1-2 (stereo not given) + Cn1nnc2c(C(N)=O)ncn2c1=O showed an IC50 (second compound 1 µM) of 0.294 µM, an IC50 (second compound 3.16 µM) of 0.24 µM and an IC50 (second compound 10 µM) of 0.158 µM. The IC50 (second compound 31.6 µM) was 0.106 µM, the IC50 (second compound 100 µM) was 0.0922 µM and the viability, T/C [1] was 113%. It also gave a viability, T/C [2] of 101%, a viability, T/C [3] of 78.2% and a viability, T/C [4] of 47.6%. The viability, T/C [5] was 35%, the viability, T/C [6] was 25% and the viability, T/C [7] was 103%. The viability, T/C [8] was 104%, the viability, T/C [9] was 76.6% and the viability, T/C [10] was 43.8%. It also gave a viability, T/C [11] of 27.7%, a viability, T/C [12] of 21.4% and a viability, T/C [13] of 87.8%. The viability, T/C [14] was 81%, the viability, T/C [15] was 60.8% and the viability, T/C [16] was 36.4%. It also gave a viability, T/C [17] of 21.6%, a viability, T/C [18] of 17.8% and a viability, T/C [19] of 76.2%. For the same compound, the viability, T/C [20] was 67.6%, the viability, T/C [21] was 53.9% and the viability, T/C [22] was 27.8%. The viability, T/C [23] was 19.7%, the viability, T/C [24] was 14.7% and the viability, T/C [25] was 67.7%. For the same compound, the viability, T/C [26] was 66.4%, the viability, T/C [27] was 49.6% and the viability, T/C [28] was 21.2%. It also gave a viability, T/C [29] of 16.1% and a viability, T/C [30] of 20.6%.
In the case of Cn1ncnc1[C@H]1c2n[nH]c(=O)c3cc(F)cc(c23)N[C@@H]1c1ccc(F)cc1 + Cn1nnc2c(C(N)=O)ncn2c1=O, the IC50 (second compound 1 µM) is reported as over 3 µM, the IC50 (second compound 3.16 µM) is reported as over 3 µM and the IC50 (second compound 10 µM) is reported as over 3 µM. For the same compound, the IC50 (second compound 31.6 µM) was 1.08 µM, the IC50 (second compound 100 µM) was under 0.00949 µM and the viability, T/C [1] was 90.9%. It also gave a viability, T/C [2] of 88.5%, a viability, T/C [3] of 86.6% and a viability, T/C [4] of 89.2%. It also gave a viability, T/C [5] of 79%, a viability, T/C [6] of 69.9% and a viability, T/C [7] of 89.8%. For the same compound, the viability, T/C [8] was 62.1%, the viability, T/C [9] was 79.3% and the viability, T/C [10] was 73%. For the same compound, the viability, T/C [11] was 77.3%, the viability, T/C [12] was 59.9% and the viability, T/C [13] was 70.4%. The viability, T/C [14] was 69.5%, the viability, T/C [15] was 60% and the viability, T/C [16] was 64.3%. It also gave a viability, T/C [17] of 60%, a viability, T/C [18] of 50.3% and a viability, T/C [19] of 56%. The viability, T/C [20] was 55.7%, the viability, T/C [21] was 53% and the viability, T/C [22] was 55.5%. For the same compound, the viability, T/C [23] was 50.1%, the viability, T/C [24] was 43.9% and the viability, T/C [25] was 44.5%. The viability, T/C [26] was 44.9%, the viability, T/C [27] was 48.1% and the viability, T/C [28] was 44%. The viability, T/C [29] was 39.8% and the viability, T/C [30] was 39.7%.
O=C(c1cc(Cc2n[nH]c(=O)c3ccccc23)ccc1F)N1CCN(C(=O)C2CC2)CC1 + Cn1nnc2c(C(N)=O)ncn2c1=O gave an IC50 (second compound 1 µM) of 21.4 µM, an IC50 (second compound 3.16 µM) of 21.8 µM and an IC50 (second compound 10 µM) of 16.3 µM. For the same compound, the IC50 (second compound 31.6 µM) was 4.55 µM, the IC50 (second compound 100 µM) was 0.863 µM and the viability, T/C [3] was 93.2%. It also gave a viability, T/C [4] of 95%, a viability, T/C [5] of 96.9% and a viability, T/C [6] of 78.3%. The viability, T/C (second compound 1 µM, first compound 9.49 µM) was 66.5%, the viability, T/C (second compound 1 µM, first compound 30 µM) was 43.5% and the viability, T/C [9] was 93.7%. The viability, T/C [10] was 93.8%, the viability, T/C [11] was 81.3% and the viability, T/C [12] was 73.6%. The viability, T/C (second compound 3.16 µM, first compound 9.49 µM) was 59.7%, the viability, T/C (second compound 3.16 µM, first compound 30 µM) was 46.4% and the viability, T/C [15] was 75.7%. It also gave a viability, T/C [16] of 70.7%, a viability, T/C [17] of 68% and a viability, T/C [18] of 67.6%. It also gave a viability, T/C (second compound 10 µM, first compound 9.49 µM) of 57.3%, a viability, T/C (second compound 10 µM, first compound 30 µM) of 41.7% and a viability, T/C [21] of 66.6%. It also gave a viability, T/C [22] of 64.5%, a viability, T/C [23] of 54.3% and a viability, T/C [24] of 55.7%. The viability, T/C (second compound 31.6 µM, first compound 9.49 µM) was 45.2%, the viability, T/C (second compound 31.6 µM, first compound 30 µM) was 36% and the viability, T/C [27] was 49.6%. It also gave a viability, T/C [28] of 54%, a viability, T/C [29] of 50.7% and a viability, T/C [30] of 41.6%. The viability, T/C (second compound 100 µM, first compound 9.49 µM) was 38.3% and the viability, T/C (second compound 100 µM, first compound 30 µM) was 33.2%.
